Assay results from US4894225A (priority 1987, dated 1990).

System: MX-1 tumors (human breast adenocarcinoma-derived tumor cell line)
Conditions: in vivo

In the case of `O=P1(N(CCCl)CCCl)NCCCO1` (stereo not shown) [cytoxan], the “% TGI (tumor growth inhibition vs PBS)” value was 90.5%, the deaths was 0/5 and the “ΔBW (change in body weight)” value was 1.11. For the same compound, the “ΔTW (change in tumor weight)” value was 2.4.
